{
  "source": "patent US10695406B2",
  "about": "“Modulation of cellular stress using a B-cell oxidative and/or endoplasmic reticulum stress inhibitor and a targeting agent” (THE UNIVERSITY OF QUEENSLAND, priority 2014, dated 2020)",
  "key": {"[1]": {"tested_on": "mice with high fat diet-induced obesity (HFDIO)", "assay": "HFDIO Experiment 2: 22 weeks of diet, IL-22 for the last 30 days", "assay_type": "in vivo, C57BL/6 male mice", "conditions": "for Body weight (% original) / Fasting blood glucose / Fasting serum insulin concentration / Fasting serum proinsulin concentration: HFDIO Experiment 2, 22 weeks on HFD", "from_the_text": "All mice were housed in sterilized, filter-topped cages in a conventional clean facility. Six to eight week old C57BL/6 male mice were fed ad libitum on a high fat diet containing 46% of available energy as saturated fat, 34% carbohydrate, 20% protein (Speciality feeds, SF04-027). Or on normal chow containing less than 10% saturated fat (GOLDMIX, 126575). Cages of mice were randomly allocated to the experimental groups by random draw. Investigators were not blinded to treatment by there were no subjective assessments made.\nTotal insulin and proinsulin were measured in supernatant from islet cultures or in serum from mice using commercially obtained ELISA kits from MILLIPORE and MERCODIA, respectively. The molar insulin concentration was determined by subtracting the molar proinsulin concentration from molar total insulin, and then the serum proinsulin:insulin ratio was calculated.\nFrom 18-22 weeks of diet, mice were treated (for 30 days) with 20 or 100 ng/g i.p. recombinant murine IL-22 twice weekly (R&D SYSTEMS) or 0.1 mg/mouse irrelevant isotype control antibody, sacrificed and sampled.\nFasted i.p. glucose tolerance tests (2 g/kg glucose) and insulin tolerance tests (0.25 U/kg insulin; Humalog, Lilly) were performed at the times indicated in the Figure Legends. […]"}, "Human LS174T cells": {"tested_on": "Human LS174T cells", "assay": "Oxidative stress (nitrite, Griess assay) in LS174T cells with 0.5 mM palmitate", "assay_type": "cell-based", "conditions": "human LS174T cells, 0.5 mM palmitate", "protocol": "Cell culture: Murine MIN6N8 cells were tested negative for mycoplasma. Cells were routinely cultured in phenol-red free DMEM (Life Technologies) containing 25 mM glucose (3.4 g/L sodium bicarbonate, 50 U/mL penicillin and streptomycin, 71.5 μM β-mercaptoethanol and 10% heat inactivated fetal bovine serum) and transferred to DMEM as above with 5.5 mM glucose 48 h prior to experimentation. Human LS174T cells were cultured in DMEM containing 10% heat-inactivated fetal bovine serum, 50 U mL^−1 penicillin and streptomycin.\nThe Griess Reagent Kit for Nitrite Determination was performed according to the manufacturer's instructions (Molecular Probes) to assess the intracellular levels of nitrite (the stable metabolite of nitric oxide) using lysates of β-cells prepared in RIPA buffer (150 mM NaCl, 1% NP40, 0.5% sodium deoxycholate, 0.1% SDS, 50 mM Tris, pH 7.5)."}, "[2]": {"tested_on": "pneumovirus of mice (PVM)", "assay": "Pneumovirus (PVM) infection of neonatal mice with IL-22 administration", "assay_type": "in vivo, C57BL/6 mice", "protocol": "Total RNA was extracted from animal tissues by homogenizing in TRIzol and separated via chloroform phase separation. RNA was purified using High Pure RNA isolation kit (ROCHE) as per the manufacturer's instructions, including DNASE treatment. Extraction purity was assessed by NANODROP, ensuring the expected A260/280 value for RNA between 1.8 and 2.0. Reverse transcription was performed on 1 μg of RNA using 5×ISCRIPT reaction mix and ISCRIPT reverse transcriptase (BIORAD). Quantitative, reverse transcription polymerase chain reaction (qRT-PCR) was performed to quantify expression of PVM gene Src homology (SH), using specific exon-spanning primer sequences and amplified with SYBR Premix Ex TAQ II polymerase (TAKARA). All gene expression was quantified in duplicate using a Viia 7 Real Time PCR System (APPLIED BIOSYSTEMS) and relative fold changes were calculated using the 2^−ΔΔCt method, comparing to the mean of naïve uninfected mice after normalizing to the β-actin housekeeping gene ACTB.\nFive-day old neonatal C57BL/6 mice were administered intraperitoneal (i.p.) injections of either recombinant mouse IL-22 (rmIL-22) (20 ng/g every three days) [R&D Systems, #582-ML/CF], or an irrelevant IgG1 mock treatment control (12.5 μg/mouse, weekly) [Lilly Pharmaceuticals, LSN2404993]. […]\nParaffin embedded left lobes were sectioned onto Superfrost plus slides. […] This scoring system assessed inflammation in the small airspaces, peribronchiolar interstitial, alveolar interstitial and injury in the airway epithelium. The degree of lung injury and inflammation was scored blindly.\nCells infected by PVM were visualized by immunohistochemistry using rabbit anti-mouse PVM antibody (polyclonal at 1:8000) (ALPHA DIAGNOSTIC, PVMNP14-S). […] PVM infection was quantified by counting number of infected cells in 4-5 bronchioles per mouse and expressed as the number of infected cells per length of bronchiole epithelium. All sections were visualized on a VS120-L100 slide scanner microscope (OLYMPUS) and analyzed using OlyVIA v2.4 (OLYMPUS) and IMAGEJ v1.45s."}},
  "data": [
    {"substance": "IL-22: interleukin-22; recombinant murine IL-22 (R&D SYSTEMS) in the mouse experiments", "values": [
      {"measurement": "decrease of serum proinsulin", "setting": "[1]; 100 ng/g", "value": 97, "unit": "%"},
      {"measurement": "islet ER stress (Xbp1 splicing)", "setting": "[1]; 100 ng/g", "value": "Xbp1 splicing indistinguishable from normal chow islets"},
      {"measurement": "body weight during treatment", "setting": "[1]; 20 or 100 ng/g, last 30 days of 22-week HFD", "value": "progressively decreased"},
      {"measurement": "Body weight (% original)", "setting": "[1]; 20 ng/g", "value": "188 ± 13", "unit": "% original"},
      {"measurement": "Fasting blood glucose", "setting": "[1]; 20 ng/g", "value": "11.3 ± 0.5", "unit": "mmol/L"},
      {"measurement": "Fasting serum insulin concentration", "setting": "[1]; 20 ng/g", "value": "0.7 ± 0.4", "unit": "ng/mL"},
      {"measurement": "Fasting serum proinsulin concentration", "setting": "[1]; 20 ng/g", "value": "14.1 ± 2.9", "unit": "pmol/L"},
      {"measurement": "Body weight (% original)", "setting": "[1]; 100 ng/g", "value": "189 ± 17", "unit": "% original"},
      {"measurement": "Fasting blood glucose", "setting": "[1]; 100 ng/g", "value": "10.6 ± 1.3", "unit": "mmol/L"},
      {"measurement": "Fasting serum insulin concentration", "setting": "[1]; 100 ng/g", "value": "0.5 ± 0.3", "unit": "ng/mL"},
      {"measurement": "Fasting serum proinsulin concentration", "setting": "[1]; 100 ng/g", "value": "4.7 ± 1.8", "unit": "pmol/L"},
      {"measurement": "time until random fed blood glucose decreased to levels of normal chow fed mice", "setting": "[1]; both doses (20 and 100 ng/g)", "value": "≤ 7", "unit": "days"},
      {"measurement": "insulin resistance in ITT", "setting": "[1]; day 16 of therapy", "value": "no or modest improvement in insulin resistance"},
      {"measurement": "serum total insulin during IPGTT", "setting": "[1]; day 25", "value": "complete suppression of fasting hyperinsulinemia and normalization of GSIS"},
      {"measurement": "glycemic control in IPGTT", "setting": "[1]; day 25 of therapy", "value": "glycemic control indistinguishable from control non-obese mice"},
      {"measurement": "insulin resistance in ITT", "setting": "[1]; day 29, both doses", "value": "insulin resistance had decreased"},
      {"measurement": "serum proinsulin:insulin ratio", "setting": "[1]; end of treatment", "value": "normalization of the serum proinsulin:insulin ratio"},
      {"measurement": "proinsulin secretion by islets ex vivo", "setting": "[1]; islets from HFD mice treated in vivo, glucose/GLP-1", "value": "reduced in a dose-dependent manner"},
      {"measurement": "islet expression of anti-oxidant genes and Nos2", "setting": "[1]; islets from HFDIO mice treated in vivo", "value": "further increased expression of anti-oxidant genes and suppressed Nos2"},
      {"measurement": "insulin secretion in response to glucose by islets ex vivo", "setting": "[1]; islets from obese mice treated for 30 days", "value": "correction of insulin hyper-secretion in response to glucose"},
      {"measurement": "pathology in skin, intestine or liver", "setting": "[1]; up to 100 μg/kg for up to 30 days", "value": "no pathology was observed in the skin, intestine or liver"},
      {"measurement": "fold higher concentrations required for the same effect as human recombinant IL-22 in suppressing oxidative stress (nitrite)", "setting": "Human LS174T cells", "value": "~64", "unit": "fold"},
      {"measurement": "mice that died between days 5 and 6 post infection", "setting": "[2]; 20 ng/g i.p. every three days, 100 PFU PVM", "value": "7/9"},
      {"measurement": "increase of PVM gene expression (PCR)", "setting": "[2]; 5 days post infection", "value": 2.2, "unit": "fold"},
      {"measurement": "lung injury score, times higher", "setting": "[2]; 5 days post infection", "value": 1.7, "unit": "times"}
    ]}
  ]
}
